In patent US20090163451A1, “METHODS FOR TREATING VISCERAL PAIN” (priority 2007, published 2009):
Entries after “also recorded” stand apart in the source; their conditions may differ.

Legend:
[1] = test system: referred visceral hypersensitivity induced by pancreatic inflammation; conditions: microinjection into the RVM (Vera-Portocarrero et al. 2006); cited from earlier work
[2] = test system: spinal neurons, colorectal distention (CRD); conditions: microinjection into the RVM (Zhuo et al.); cited from earlier work
[3] = test system: rats with experimental colonic hypersensitivity (butyrate), referred lumbar hypersensitivity; assay: colonic hypersensitivity model (intracolonic sodium butyrate): referred lumbar hypersensitivity, von Frey mechanical threshold; assay type: in vivo, Sprague Dawley rats; conditions: butyrate rats; for effect of concurrent RVM antagonist on the effect of RVM sumatriptan: sumatriptan 10 μg RVM; for effect of concurrent systemic (IP) antagonist on the effect of systemic sumatriptan: isamoltane 4 mg/kg IP or BRL15722 0.3 mg/kg IP
Procedure: (§1) Adult male Sprague Dawley rats (Harlan, Indianapolis, Ind.), weighing 150-200 g, were maintained in a climate-controlled room with ad lib food and water on a 12 hour/12 hour light/dark cycle (lights on at 07:00 hours). All procedures followed the policies of the International Association for the Study of Pain and the NIH guidelines for the handling and use of laboratory animals. Studies were approved by the University of Arizona IACUC.
(§2) Dibutyltin dichloride (DBTC) was obtained from Sigma-Aldrich (Milwaukee, Wis.) and dissolved in 100% ethanol to a concentration of 8 mg/kg (Sparmann et al., Gastroenterology. 112:1664-1672 (1997))). Sumatriptan succinate was obtained from Toronto Research Chemicals (ON, Canada) and dissolved in saline to 1, 3, and 10 μg for RVM microinjections and 100, 200, and 300 μg/kg for systemic injections (Kayser et al., Br J Pharmacol. 137:1287-1297 (2002)). The 5HT1B antagonist isamoltane and the 5HT1D antagonist BRL15722 were obtained from Tocris (Elllisville, Mo.). Isamoltane was dissolved in saline to a concentration of 3 μg for RVM microinjection and to a concentration of 4 mg/kg (Ottani et al., Eur J Pharmacol. 497:181-186 (2004)) for system application. BRL15722 was dissolved in 10% DMSO to a concentration of 3 μg for RVM microinjection and to a concentration of 0.3 mg/kg (Ottani et al., Eur J Pharmacol. 497:181-186 (2004)) for systemic application.
(§3) For the experiments involving microinjection of drugs into the RVM, rats underwent surgeries to implant RVM cannulae. After five days of recovery, rats received either intravenous injection of DBTC to induce pancreatitis, or intracolonic injection of sodium butyrate to induce colonic hypersensitivity. Animals were monitored for development of visceral hypersensitivity on the subsequent days. On day six after either induction of pancreatitis or colonic hypersensitivity, animals underwent baseline behavioral measurements. Sumatriptan was microinjected into the RVM at different doses (separate groups of rats for each dose) and animals were monitored behaviorally for two h after sumatriptan application in the RVM. For experiments investigating the effects of serotonin antagonists, the drugs were microinjected concurrently with injection of sumatriptan and animals were monitored for the subsequent two h. Separate groups of animals were microinjected with the antagonists alone to control for possible effects of the drugs by themselves.
(§4) For the experiments involving systemic drug administration, rats received intravenous injection of DBTC to induce pancreatitis or intracolonic injection of sodium butyrate to induce colonic hypersensitivity. On day six after either induction of pancreatitis of colonic hypersensitivity, animals underwent baseline behavioral measurements. Sumatriptan was injected intraperitoneally at different doses (separate groups of rats for each dose) and the animals were monitored behaviorally every 20 min for two h after injection. For experiments investigating the effects of serotonin antagonists, the drugs were injected intraperitoneally immediately following the injection of sumatriptan (separate groups for each respective antagonist). Separate groups of animals were injected with the antagonists alone. Additionally, separate groups of animals were injected with sumatriptan systemically and microinjected with the antagonists in the RVM to determine if the RVM is a site of action for systemically applied sumatriptan. The microinjection of antagonists into the RVM was done immediately following the systemic injection of sumatriptan. All animals were tested for behavioral signs of hypersensitivity every 20 min for two h after the end of the injections.
Colonic hypersensitivity was induced by enemas of a sodium butyrate solution ([…]) twice daily for 3 days (Bourdu et al., Gastroenterology. 128:1996-2008 (2005)). […]

[4] = test system: rats with experimental pancreatitis (DBTC), referred abdominal hypersensitivity; assay: experimental pancreatitis model (IV DBTC): referred abdominal hypersensitivity, withdrawals to von Frey filament; assay type: in vivo, Sprague Dawley rats; conditions: DBTC rats; for effect of concurrent RVM antagonist on the effect of RVM sumatriptan: sumatriptan 10 μg RVM; for effect of concurrent RVM antagonist on the effect of RVM sumatriptan / effect of RVM antagonist on the effect of systemic sumatriptan: antagonist 3 μg RVM
Procedure: as §1, §2
as §3, with “Sumatriptan was microinjected into the RVM at different doses (separate groups of rats for each dose) and animals were monitored behaviorally for two h after sumatriptan application in the RVM.” left out
as §4, with “Sumatriptan was injected intraperitoneally at different doses (separate groups of rats for each dose) and the animals were monitored behaviorally every 20 min for two h after injection. For experiments investigating the effects of serotonin antagonists, the drugs were injected intraperitoneally immediately following the injection of sumatriptan (separate groups for each respective antagonist).” left out
Pancreatitis was produced by a tail vein injection of dibutyltin dichloride (DBTC, Aldrich, Milwaukee, Wis., 0.25 cc) dissolved in 100% ethanol at a dose of 8 mg/kg under isofluorane anesthesia (2-3 liters/min, 4.0%/vol until anesthetized, then 2.5%/vol throughout the procedure; Vera-Portocarrero et al., Gastroenterology. 130:2155-2164 (2006)). Control animals were injected with the vehicle solution only (100% ethanol, 0.25 mL).
Referred abdominal hypersensitivity in the pancreatitis model was quantified by measuring the number of withdrawal events evoked by application of a calibrated von Frey filament (determined by either abdominal withdrawal, licking of the abdominal area, or whole body withdrawal). Rats were placed inside Plexiglas boxes on an elevated fine fiberglass screen mesh and acclimated for 30 minutes before testing. […]

[5] = sumatriptan 300 μg/kg IP, listed as BRL1 5722

Row | Structure (SMILES) | referred visceral hypersensitivity induced by pancreatic inflammation [1] | spontaneous activity and responses of spinal neurons to colorectal distention [2] | effect of concurrent RVM antagonist on the effect of RVM sumatriptan ([3]; antagonist 3 μg RVM) | effect of concurrent RVM antagonist on the effect of RVM sumatriptan ([3]; antagonist 3 μg RVM, listed as BRL1 5722) | effect of RVM antagonist on the effect of systemic sumatriptan ([3]; sumatriptan 300 μg/kg IP, antagonist 3 μg RVM) | effect of concurrent systemic (IP) antagonist on the effect of systemic sumatriptan ([3]; sumatriptan 300 μg/kg IP) | effect of concurrent systemic (IP) antagonist on the effect of systemic sumatriptan [3, 5] | effect of concurrent RVM antagonist on the effect of RVM sumatriptan [4] | effect of concurrent RVM antagonist on the effect of RVM sumatriptan ([4]; listed as BRL1 5722) | effect of RVM antagonist on the effect of systemic sumatriptan ([4]; sumatriptan 300 μg/kg IP) | effect of RVM antagonist on the effect of systemic sumatriptan [4, 5] | effect of concurrent systemic (IP) antagonist on the effect of systemic sumatriptan ([4]; sumatriptan 300 μg/kg IP, isamoltane 4 mg/kg IP or BRL15722 0.3 mg/kg IP)
1 | CCN(CC)CC(=O)Nc1c(C)cccc1C [lidocaine] | attenuated referred visceral hypersensitivity | reduced spontaneous activity and responses of spinal neurons to colorectal distention; also recorded: reduced spontaneous activity and responses of spinal neurons to CRD |  |  |  |  |  |  |  |  |  | 
2 | OC(CN1CCN(c2cccc(Cl)c2)CC1)C(c1ccccc1)c1ccccc1 (stereo not drawn) [BRL15722] |  |  | did not block the effect of RVM sumatriptan | did not have any effect | failed to antagonize the effects of systemic sumatriptan; also recorded: did not block the effect of systemic sumatriptan | blocked the effect of systemic sumatriptan | reduced the effects of systemic sumatriptan | did not block the effect of RVM sumatriptan | did not have any effect | did not block the effect of sumatriptan | failed to antagonize the effects of systemic sumatriptan | reduced the effects of systemic sumatriptan; also recorded: blocked the effect of sumatriptan
